Results from publication PMC9082781 (ACS infectious diseases, 2021).
≈ marks a conversion by molar mass, not a printed value. Non-standard residues stand in square brackets, D forms with d. Residues, ends and D or L forms follow the SMILES beside them. No end group written: not given here. *: point of attachment. Myristoyl = CCCCCCCCCCCCCC(=O)*; Lauroyl = CCCCCCCCCCCC(=O)*; Decanoyl = CCCCCCCCCC(=O)*; Octanoyl = CCCCCCCC(=O)*; Hexanoyl = CCCCCC(=O)*

What was measured:
[1] = system: Klebsiella pneumonia ATCC 13883; type: cell-based, Klebsiella pneumoniae
P. aeruginosa PAO1 = type: cell-based, Pseudomonas aeruginosa

## CCCCCCCCCCCCCC(=O)N[C@@H](CCCCN)C(=O)N[C@@H](CCCNC(=N)N)C(=O)N[C@H](C(=O)N[C@@H](Cc1c[nH]c2ccccc12)C(=O)N[C@@H](CCC(N)=O)C(=O)N[C@@H](CCCNC(=N)N)C(=O)N[C@H](C(=O)N[C@@H](CCCCN)C(=O)N[C@@H](CC(=O)O)C(=O)N[C@@H](Cc1ccccc1)C(N)=O)[C@@H](C)CC)[C@@H](C)CC [Peptide C14-KR10] (Myristoyl-KRIWQRIKDF-NH2)
[1]
  MIC KP: 6.2 µM (≈ 9.91 µg/mL)

## KRIVQRIKDFLR-NH2 [KR12, reference compound]
[1]
  MIC KP: >50 µM
E. coli ATCC25922
  MIC EC: >50 µM

## CCCCCCCCCCCCCC(=O)N[C@@H](CCCCN)C(=O)N[C@@H](CCCNC(=N)N)C(=O)N[C@H](C(=O)N[C@@H](Cc1c[nH]c2ccccc12)C(=O)N[C@@H](CCC(N)=O)C(=O)N[C@@H](CCCNC(=N)N)C(N)=O)[C@@H](C)CC [Peptide C14-KR6] (Myristoyl-KRIWQR-NH2; C-terminus assumed)
[1]
  MIC KP: >50 µM

## CCCCCCCCCCCCCC(=O)N[C@@H](CCCCN)C(=O)N[C@@H](CCCNC(=N)N)C(=O)N[C@H](C(=O)N[C@@H](Cc1c[nH]c2ccccc12)C(N)=O)[C@@H](C)CC [Peptide C14-KR4] (Myristoyl-KRIW-NH2; C-terminus assumed)
[1]
  MIC KP: 12.5 µM (≈ 10.1 µg/mL)

## CCCCCC(=O)N[C@@H](CCCCN)C(=O)N[C@@H](CCCNC(=N)N)C(=O)N[C@H](C(=O)N[C@@H](Cc1c[nH]c2ccccc12)C(=O)N[C@@H](CCC(N)=O)C(=O)N[C@@H](CCCNC(=N)N)C(=O)N[C@H](C(=O)N[C@@H](CCCCN)C(=O)N[C@@H](CC(=O)O)C(=O)N[C@@H](Cc1ccccc1)C(N)=O)[C@@H](C)CC)[C@@H](C)CC [Peptide C6-KR10] (Hexanoyl-KRIWQRIKDF-NH2)
[1]
  MIC KP: >50 µM

## CCCCCCCC(=O)N[C@@H](CCCCN)C(=O)N[C@@H](CCCNC(=N)N)C(=O)N[C@H](C(=O)N[C@@H](Cc1c[nH]c2ccccc12)C(N)=O)[C@@H](C)CC [Peptide C8-KR4] (Octanoyl-KRIW-NH2; C-terminus assumed)
[1]
  MIC KP: >50 µM

## CCCCCC(=O)N[C@@H](CCCCN)C(=O)N[C@@H](CCCNC(=N)N)C(=O)N[C@H](C(=O)N[C@@H](Cc1c[nH]c2ccccc12)C(=O)N[C@@H](CCC(N)=O)C(=O)N[C@@H](CCCNC(=N)N)C(=O)N[C@H](C(=O)N[C@@H](CCCCN)C(=O)N[C@@H](CC(=O)O)C(=O)N[C@@H](Cc1ccccc1)C(=O)N[C@@H](CC(C)C)C(=O)N[C@@H](CCCNC(=N)N)C(N)=O)[C@@H](C)CC)[C@@H](C)CC [Peptide C6-KR12] (Hexanoyl-KRIWQRIKDFLR-NH2)
[1]
  MIC KP: 6.2 µM (≈ 10.9 µg/mL)

## CCCCCCCCCCCC(=O)N[C@@H](CCCCN)C(=O)N[C@@H](CCCNC(=N)N)C(=O)N[C@H](C(=O)N[C@@H](Cc1c[nH]c2ccccc12)C(=O)N[C@@H](CCC(N)=O)C(=O)N[C@@H](CCCNC(=N)N)C(=O)N[C@H](C(=O)N[C@@H](CCCCN)C(=O)N[C@@H](CC(=O)O)C(=O)N[C@@H](Cc1ccccc1)C(N)=O)[C@@H](C)CC)[C@@H](C)CC [Peptide C12-KR10] (Lauroyl-KRIWQRIKDF-NH2)
[1]
  MIC KP: 3.1 µM (≈ 4.87 µg/mL)
P. aeruginosa PAO1
  MIC PA: 3.1 µM (≈ 4.87 µg/mL)

## CCCCCCCCCCCC(=O)N[C@@H](CCCCN)C(=O)N[C@@H](CCCNC(=N)N)C(=O)N[C@H](C(=O)N[C@@H](Cc1c[nH]c2ccccc12)C(=O)N[C@@H](CCC(N)=O)C(=O)N[C@@H](CCCNC(=N)N)C(N)=O)[C@@H](C)CC [Peptide C12-KR6] (Lauroyl-KRIWQR-NH2; C-terminus assumed)
[1]
  MIC KP: >50 µM

## CCCCCCCCCC(=O)N[C@@H](CCCCN)C(=O)N[C@@H](CCCNC(=N)N)C(=O)N[C@H](C(=O)N[C@@H](Cc1c[nH]c2ccccc12)C(=O)N[C@@H](CCC(N)=O)C(=O)N[C@@H](CCCNC(=N)N)C(=O)N[C@H](C(=O)N[C@@H](CCCCN)C(=O)N[C@@H](CC(=O)O)C(=O)N[C@@H](Cc1ccccc1)C(=O)N[C@@H](CC(C)C)C(=O)N[C@@H](CCCNC(=N)N)C(N)=O)[C@@H](C)CC)[C@@H](C)CC [Peptide C10-KR12] (Decanoyl-KRIWQRIKDFLR-NH2)
[1]
  MIC KP: 6.2 to 12.5 µM

## CCCCCCCC(=O)N[C@@H](CCCCN)C(=O)N[C@@H](CCCNC(=N)N)C(=O)N[C@H](C(=O)N[C@@H](Cc1c[nH]c2ccccc12)C(=O)N[C@@H](CCC(N)=O)C(=O)N[C@@H](CCCNC(=N)N)C(=O)N[C@H](C(=O)N[C@@H](CCCCN)C(=O)N[C@@H](CC(=O)O)C(=O)N[C@@H](Cc1ccccc1)C(=O)N[C@@H](CC(C)C)C(=O)N[C@@H](CCCNC(=N)N)C(N)=O)[C@@H](C)CC)[C@@H](C)CC [Peptide C8-KR12] (Octanoyl-KRIWQRIKDFLR-NH2)
[1]
  MIC KP: <6.2 µM

## CCCCCCCCCCCC(=O)N[C@@H](CCCCN)C(=O)N[C@@H](CCCNC(=N)N)C(=O)N[C@H](C(=O)N[C@@H](Cc1c[nH]c2ccccc12)C(=O)N[C@@H](CCC(N)=O)C(=O)N[C@@H](CCCNC(=N)N)C(=O)N[C@H](C(=O)N[C@@H](CCCCN)C(=O)N[C@@H](CC(=O)O)C(=O)N[C@@H](Cc1ccccc1)C(=O)N[C@@H](CC(C)C)C(=O)N[C@@H](CCCNC(=N)N)C(N)=O)[C@@H](C)CC)[C@@H](C)CC [Peptide C12-KR12] (Lauroyl-KRIWQRIKDFLR-NH2)
[1]
  MIC KP: 12.5 µM (≈ 23 µg/mL)

## CCCCCC(=O)N[C@@H](CCCCN)C(=O)N[C@@H](CCCNC(=N)N)C(=O)N[C@H](C(=O)N[C@@H](Cc1c[nH]c2ccccc12)C(=O)N[C@@H](CCC(N)=O)C(=O)N[C@@H](CCCNC(=N)N)C(N)=O)[C@@H](C)CC [Peptide C6-KR6] (Hexanoyl-KRIWQR-NH2; C-terminus assumed)
[1]
  MIC KP: >50 µM

## CCCCCCCCCCCC(=O)N[C@@H](CCCCN)C(=O)N[C@@H](CCCNC(=N)N)C(=O)N[C@H](C(=O)N[C@@H](Cc1c[nH]c2ccccc12)C(=O)N[C@@H](CCC(N)=O)C(=O)N[C@@H](CCCNC(=N)N)C(=O)N[C@H](C(=O)N[C@@H](CCCCN)C(N)=O)[C@@H](C)CC)[C@@H](C)CC [Peptide C12-KR8] (Lauroyl-KRIWQRIK-NH2)
[1]
  MIC KP: >50 µM

## CCCCCCCCCCCC(=O)N[C@@H](CCCCN)C(=O)N[C@@H](CCCNC(=N)N)C(=O)N[C@H](C(=O)N[C@@H](Cc1c[nH]c2ccccc12)C(N)=O)[C@@H](C)CC [Peptide C12-KR4] (Lauroyl-KRIW-NH2; C-terminus assumed)
[1]
  MIC KP: >50 µM

## CCCCCCCCCC(=O)N[C@@H](CCCCN)C(=O)N[C@@H](CCCNC(=N)N)C(=O)N[C@H](C(=O)N[C@@H](Cc1c[nH]c2ccccc12)C(=O)N[C@@H](CCC(N)=O)C(=O)N[C@@H](CCCNC(=N)N)C(=O)N[C@H](C(=O)N[C@@H](CCCCN)C(=O)N[C@@H](CC(=O)O)C(=O)N[C@@H](Cc1ccccc1)C(N)=O)[C@@H](C)CC)[C@@H](C)CC [Peptide C10-KR10] (Decanoyl-KRIWQRIKDF-NH2)
[1]
  MIC KP: 6.2 µM (≈ 9.57 µg/mL)
P. aeruginosa PAO1
  MIC PA: 6.2 µM (≈ 9.57 µg/mL)

## CCCCCCCCCC(=O)N[C@@H](CCCCN)C(=O)N[C@@H](CCCNC(=N)N)C(=O)N[C@H](C(=O)N[C@@H](Cc1c[nH]c2ccccc12)C(N)=O)[C@@H](C)CC [Peptide C10-KR4] (Decanoyl-KRIW-NH2; C-terminus assumed)
[1]
  MIC KP: >50 µM

## CCCCCCCCCC(=O)N[C@@H](CCCCN)C(=O)N[C@@H](CCCNC(=N)N)C(=O)N[C@H](C(=O)N[C@@H](Cc1c[nH]c2ccccc12)C(=O)N[C@@H](CCC(N)=O)C(=O)N[C@@H](CCCNC(=N)N)C(N)=O)[C@@H](C)CC [Peptide C10-KR6] (Decanoyl-KRIWQR-NH2; C-terminus assumed)
[1]
  MIC KP: >50 µM

## CCCCCCCCCCCCCC(=O)N[C@@H](CCCCN)C(=O)N[C@@H](CCCNC(=N)N)C(=O)N[C@H](C(=O)N[C@@H](Cc1c[nH]c2ccccc12)C(=O)N[C@@H](CCC(N)=O)C(=O)N[C@@H](CCCNC(=N)N)C(=O)N[C@H](C(=O)N[C@@H](CCCCN)C(N)=O)[C@@H](C)CC)[C@@H](C)CC [Peptide C14-KR8] (Myristoyl-KRIWQRIK-NH2)
[1]
  MIC KP: >50 µM

## CCCCCCCC(=O)N[C@H](CCCCN)C(=O)N[C@H](CCCNC(=N)N)C(=O)N[C@@H](C(=O)N[C@H](Cc1c[nH]c2ccccc12)C(=O)N[C@H](CCC(N)=O)C(=O)N[C@H](CCCNC(=N)N)C(=O)N[C@@H](C(=O)N[C@H](CCCCN)C(=O)N[C@H](CC(=O)O)C(=O)N[C@H](Cc1ccccc1)C(N)=O)[C@H](C)CC)[C@H](C)CC [Peptide C8-KR10d] (Octanoyl-[dK][dR][dI][dW][dQ][dR][dI][dK][dD][dF]-NH2; C-terminus assumed)
[1]
  MIC KP: 12.5 µM (≈ 18.9 µg/mL)
P. aeruginosa PAO1
  MIC PA: 12.5 µM (≈ 18.9 µg/mL)
E. coli ATCC25922
  MIC EC: 6.2 µM (≈ 9.39 µg/mL)
S. aureus USA300 LAC; USA300
  MIC SA: 3.1 µM (≈ 4.7 µg/mL)
S. aureus USA300 LAC; USA300, pH 7.4
  Minimal inhibitory concentration (MIC): 3.1 µM (≈ 4.7 µg/mL)

## CCCCCC(=O)N[C@@H](CCCCN)C(=O)N[C@@H](CCCNC(=N)N)C(=O)N[C@H](C(=O)N[C@@H](Cc1c[nH]c2ccccc12)C(=O)N[C@@H](CCC(N)=O)C(=O)N[C@@H](CCCNC(=N)N)C(=O)N[C@H](C(=O)N[C@@H](CCCCN)C(N)=O)[C@@H](C)CC)[C@@H](C)CC [Peptide C6-KR8] (Hexanoyl-KRIWQRIK-NH2)
[1]
  MIC KP: >50 µM

## CCCCCC(=O)N[C@@H](CCCCN)C(=O)N[C@@H](CCCNC(=N)N)C(=O)N[C@H](C(=O)N[C@@H](Cc1c[nH]c2ccccc12)C(N)=O)[C@@H](C)CC [Peptide C6-KR4] (Hexanoyl-KRIW-NH2; C-terminus assumed)
[1]
  MIC KP: >50 µM

## CCCCCCCC(=O)N[C@@H](CCCCN)C(=O)N[C@@H](CCCNC(=N)N)C(=O)N[C@H](C(=O)N[C@@H](Cc1c[nH]c2ccccc12)C(=O)N[C@@H](CCC(N)=O)C(=O)N[C@@H](CCCNC(=N)N)C(=O)N[C@H](C(=O)N[C@@H](CCCCN)C(N)=O)[C@@H](C)CC)[C@@H](C)CC [Peptide C8-KR8] (Octanoyl-KRIWQRIK-NH2)
[1]
  MIC KP: >50 µM

## CCCCCCCC(=O)N[C@@H](CCCCN)C(=O)N[C@@H](CCCNC(=N)N)C(=O)N[C@H](C(=O)N[C@@H](Cc1c[nH]c2ccccc12)C(=O)N[C@@H](CCC(N)=O)C(=O)N[C@@H](CCCNC(=N)N)C(N)=O)[C@@H](C)CC [Peptide C8-KR6] (Octanoyl-KRIWQR-NH2; C-terminus assumed)
[1]
  MIC KP: >50 µM
